Legend:
[1] = Solubility of TSC in aqueous PEG400/NaCl/sucrose formulations; assay type: physicochemical
Protocol: (§1) 1650 grams of sucrose was added to 51.59 Kg of WFI with mixing in a Nalgene tank containing a tank liner. 2475 grams of PEG400 was then added to the tank with mixing. After the sucrose and PEG400 were completely dissolved, 110 grams of TSC was added and the solution was mixed at room temperature for a minimum of 30 minutes or until the solution was clear. The solution was then filtered through a 0.45 μm glass fiber prefilter+0.2 μm sterile filter at a pump speed of 700 mL/min into a 100 L Biobag. A sample of the filtrate was pulled from the Biobag solution for a bioburden test. The Biobag was stored at 2-8° C. for at least 12 hours and then brought to room temperature and sterile filtered through 0.45 μm glass fiber prefilter+0.2 μm sterile filter at a pump speed of 700 mL/min to a 100 L Biobag. The sterile filtrate was then filled into amber 10R vials with a target 10.5 ml fill volume.
Other exemplary TSC aqueous solutions were formulated with varying concentrations of PEG400, NaCl, sucrose and TSC concentrations.
(§2) All formulations could be carried out at room temperature with mixing. The dissolution of TSC was generally completed within 10 minutes. […] The solution pH is around 8.7 and no further pH adjustment was needed. The final formulation has an osmolality around 270 mOsm.

[2] = Properties of TSC aqueous formulation (dissolution, crash-out on dilution/storage, pH, osmolality); assay type: physicochemical
Protocol: as §1, §2

Observation (solubility) ([1]; PEG400 2% (v/v), NaCl 0%, sucrose 0%, TSC 2 mg/mL): soluble | Observation (solubility) ([1]; PEG400 4% (v/v), NaCl 0%, sucrose 0%, TSC 4 mg/mL): soluble | Observation (solubility) ([1]; PEG400 4% (v/v), NaCl 0%, sucrose 3% (w/v), TSC 2 mg/mL): soluble | Observation (solubility) ([1]; PEG400 4% (v/v), NaCl 0.9% (w/w), sucrose 0%, TSC 2 mg/mL (first of two identical lines)): partially soluble | Observation (solubility) ([1]; PEG400 4% (v/v), NaCl 0.9% (w/w), sucrose 0%, TSC 2 mg/mL (second of two identical lines)): soluble | Observation (solubility) ([1]; PEG400 4% (v/v), NaCl 0.9% (w/w), sucrose 0%, TSC 4 mg/mL): partially soluble | Observation (solubility) ([1]; PEG400 6% (v/v), NaCl 0%, sucrose 0%, TSC 4 mg/mL): soluble | Observation (solubility) ([1]; PEG400 8% (v/v), NaCl 0%, sucrose 0%, TSC 8 mg/mL): saturated with some | Observation (solubility) ([1]; PEG400 80% (v/v), NaCl 0% (w/w), sucrose 0% (w/v), TSC 20 mg/mL): soluble | dissolution of TSC, time to completion ([2]; all formulations, room temperature with mixing): ≤ 10 min | TSC crash out of solution after storage ([2]; storage at 2-8° C.): No TSC was observed to crash out | TSC crash out of the solution upon dilution ([2]; ten times dilution in 0.9% saline, 2 mg/mL formulation): No TSC was observed to crash out
SMILES: CC(/C=C/C=C(\C)C(=O)[O-])=C\C=C\C=C(C)\C=C\C=C(/C)C(=O)[O-].[Na+].[Na+] [TSC, trans sodium crocetinate]

From US20240350446A1, “CAROTENOID SOLUTIONS AND USES THEREOF” (L.E.A.F. HOLDINGS GROUP LLC, priority 2020, published 2024)
